From patent publication US10633542B2, “Azacyanine dyes and use thereof” (Ecole Polytechnique Fédérale de Lausanne (EPFL), priority 2018, dated 2020)
Several values for one entry are separate records, joined by “and”; a condition that tells them apart may be missing. Equal entries are not always repeated.

What was measured:
[1] = Shortwave infrared / NIR-II imaging with SWIR camera system; format: physicochemical; conditions: commercial SWIR camera system
From the text: It was already shown that in the NIR-II region there is less absorption and […] enabling 2 times deeper imaging with much higher resolution respectively. […] The results are shown on FIG. 24. The camera used for obtaining the data has the following specs: “Princeton NIRvana detector, IsoPlane SCT320 spectrometer, Nikon inverted microscope, 658 nm, 785 nm and Xenon lamp/monochromator illumination sources” The other derivatives of aza-cyanine analogs covered in the current invention are currently being tested to find the optimal SWIR imaging dye.

[2] = tested on: sliced skin tissue of a nude mouse (dry-ice treated); test: Ex vivo cell death assay, cryogenic tissue damage; conditions: 1 uM, 5 uM, 10 uM, 10 min at room temperature
Experimental: Ex vivo cell death assay for compounds, VI and XIV were studied using a method of cryogenic tissue damage. Briefly, a bar of a dry ice was applied to sliced skin tissue of a nude mouse recently sacrificed in a petri dish for a period of 60 sec. Subsequently, the skin tissue samples were incubated with different concentrations of dye VI and XIV (1 uM, 5 uM, and 10 uM) for 10 min at room temperature.

necrotic tissue = test: Necrosis imaging in vivo after cardiotoxin injection; set-up: species or system mouse
Experimental: Cardiotoxin (10 μM in 50 μL of PBS) was injected into the right thigh of the mouse and 50 μL of PBS was injected into the left thigh. 24 hours post-injection of toxin, Compound VIII ([…] in 100 μL PBS) was injected intravenously into the tail of the mouse. […] The results are shown below in FIG. 20-22. The brightnesses of the images are not on scale with one another. The quantification is shown on the same graph. Significant signal over-background ratios resulting from accumulation of the dye in necrosis areas observed as early as 10 min post-injection of the Compound VIII making it ideal for clinical translation.

A431 cells = test: Cell uptake in live cells; format: cell-based; conditions: for Average values: average of wells; for Avg Radiant Efficiency: single wells
Experimental: Therefore, we performed such experiments in live cells with Compound VIII compound. […] The following procedure was used:
Cells were grown in 96 well plates to confluent level. Media was removed, cells washed with PBS, incubated for a set time (5, 15, or 30 minutes) at varying concentrations of the dye (5 μM, 10 μM, and 25 μM) in PBS. Dye was removed, cells washed twice with PBS, then PBS added for imaging.
The values for each well were consistent with that of the control group of wells that were not exposed to the dye in wells A1-A3. The bright well at F12 is a solution of Compound VIII at 5 μM in PBS to insure imaging of the dye is occurring.

[3] = in methanol, calibration standard; cited from earlier work
[4] = cited from earlier work

CC1(C)C2=CC=CN(CCCCCC(=O)O)C2=N/C1=C/C=C1\C[N+](C)(C)CC(/C=C/C2=Nc3c(ccc[n+]3CCCCCC(=O)O)C2(C)C)=C1Cl [dye VI]
absorption in the NIR-II region [1]: absorbs in the NIR-II region | fluorescence at the site of focal dry-ice treatment [2]: strong fluorescence signal | signal from the viable cells [2]: no signal

CN1C=CC=C2C1=N/C(=C\C=C1/C[N+](C)(C)CC(/C=C/C3=Nc4c(ccc[n+]4C)C3(C)C)=C1Cl)C2(C)C.I [Compound VIII]
absorption in the NIR-II region [1]: absorbs in the NIR-II region | targeting of necrotic area in vivo (necrotic tissue; cardiotoxin in right thigh, dye 40 μmoles in 100 μL PBS intravenously 24 hours later): selectively targets the necrotic area | clearance route (necrotic tissue; mouse, intravenous): clears through the kidneys instead of accumulating in the liver | time post-injection at which significant signal over-background ratios are observed (necrotic tissue; mouse, intravenous): 10 min | Average values (A431 cells; 5 μM, 5 minutes): 1.49E+07 [p/s/cm^2/sr]/[μW/cm^2] | Avg Radiant Efficiency (A431 cells; 5 μM, 5 minutes): 1.64E+07 [p/s/cm^2/sr]/[μW/cm^2] and 1.47E+07 [p/s/cm^2/sr]/[μW/cm^2] and 1.36E+07 [p/s/cm^2/sr]/[μW/cm^2] | Average values (A431 cells; 5 μM, 15 minutes): 1.24E+07 [p/s/cm^2/sr]/[μW/cm^2] | Avg Radiant Efficiency (A431 cells; 5 μM, 15 minutes): 1.29E+07 [p/s/cm^2/sr]/[μW/cm^2] and 1.23E+07 [p/s/cm^2/sr]/[μW/cm^2] and 1.19E+07 [p/s/cm^2/sr]/[μW/cm^2] | Average values (A431 cells; 5 μM, 30 minutes): 1.17E+07 [p/s/cm^2/sr]/[μW/cm^2] | Avg Radiant Efficiency (A431 cells; 5 μM, 30 minutes): 1.18E+07 [p/s/cm^2/sr]/[μW/cm^2] and 1.16E+07 [p/s/cm^2/sr]/[μW/cm^2] and 1.17E+07 [p/s/cm^2/sr]/[μW/cm^2] | Average values (A431 cells; 10 μM, 5 minutes): 1.39E+07 [p/s/cm^2/sr]/[μW/cm^2] | Avg Radiant Efficiency (A431 cells; 10 μM, 5 minutes): 1.50E+07 [p/s/cm^2/sr]/[μW/cm^2] and 1.39E+07 [p/s/cm^2/sr]/[μW/cm^2] and 1.28E+07 [p/s/cm^2/sr]/[μW/cm^2] | Average values (A431 cells; 10 μM, 15 minutes): 1.20E+07 [p/s/cm^2/sr]/[μW/cm^2] | Avg Radiant Efficiency (A431 cells; 10 μM, 15 minutes): 1.24E+07 [p/s/cm^2/sr]/[μW/cm^2] and 1.18E+07 [p/s/cm^2/sr]/[μW/cm^2] and 1.17E+07 [p/s/cm^2/sr]/[μW/cm^2] | Average values (A431 cells; 10 μM, 30 minutes): 1.15E+07 [p/s/cm^2/sr]/[μW/cm^2] | Avg Radiant Efficiency (A431 cells; 10 μM, 30 minutes): 1.16E+07 [p/s/cm^2/sr]/[μW/cm^2] and 1.15E+07 [p/s/cm^2/sr]/[μW/cm^2] and 1.13E+07 [p/s/cm^2/sr]/[μW/cm^2] | Average values (A431 cells; 25 μM, 5 minutes): 1.33E+07 [p/s/cm^2/sr]/[μW/cm^2] | Avg Radiant Efficiency (A431 cells; 25 μM, 5 minutes): 1.39E+07 [p/s/cm^2/sr]/[μW/cm^2] and 1.34E+07 [p/s/cm^2/sr]/[μW/cm^2] and 1.27E+07 [p/s/cm^2/sr]/[μW/cm^2] | Average values (A431 cells; 25 μM, 15 minutes): 1.20E+07 [p/s/cm^2/sr]/[μW/cm^2] | Avg Radiant Efficiency (A431 cells; 25 μM, 15 minutes): 1.22E+07 [p/s/cm^2/sr]/[μW/cm^2] and 1.20E+07 [p/s/cm^2/sr]/[μW/cm^2] and 1.19E+07 [p/s/cm^2/sr]/[μW/cm^2] | Average values (A431 cells; 25 μM, 30 minutes): 1.20E+07 [p/s/cm^2/sr]/[μW/cm^2] | Avg Radiant Efficiency (A431 cells; 25 μM, 30 minutes): 1.20E+07 [p/s/cm^2/sr]/[μW/cm^2] | uptake in live A431 cells (A431 cells; long incubation periods (30 min), high concentrations (25 uM)): No uptake | radiance of wells incubated with the dye compared to that of the control (A431 cells; wells B1-C10, 5-25 μM, 5-30 minutes): no significant difference

CC1(C)C2=CC=CN(CCCCCC(=O)O)C2=N/C1=C/C=C1\C[N+](C)(C)CC(/C=C/C2=Nc3c(ccc[n+]3CCCCCC(=O)O)C2(C)C)=C1Oc1ccc(S(=O)(=O)O)cc1.[Na+] [dye XIV]
fluorescence at the site of focal dry-ice treatment [2]: strong accumulation of fluorescence

CC1(C)C(/C=C/C=C/C=C/C=C2\N(CCCCS(=O)(=O)O)c3ccc4ccccc4c3C2(C)C)=[N+](CCCCS(=O)(=O)[O-])c2ccc3ccccc3c21 [ICG, Indocyanine Green]
fluorescence quantum yield (QY) [3]: 7.8% | solubility in saline [4]: not readily soluble
